Measurements as given in patent US10246456B2, “IRAK4 inhibiting agents” (BIOGEN MA INC., priority 2014, dated 2019).

target: IRAK4 (Homo sapiens (Human), UniProt Q9NWZ3); assay: IRAK-4 AlphaScreen biochemical kinase assay; details: 1 nM IRAK4, 1 mM ATP, 3.5 h at RT
Description: The biochemical assay is in a AlphaScreen format. The kinase reaction is based on the IRAK-4 phosphorylation of a biotin labeled peptide. The phosphopeptide is incubated with anti-phosphothreonine antibody as well as streptavidin- and protein A-coated beads. Binding of the protein-A coated beads to the antibody and the streptavidin beads to the peptide, leads to an energy transfer from one bead to the other, ultimately producing a luminescent/fluorescent signal.

Chain of IRAK4 (Q9NWZ3 whole entry, species assumed): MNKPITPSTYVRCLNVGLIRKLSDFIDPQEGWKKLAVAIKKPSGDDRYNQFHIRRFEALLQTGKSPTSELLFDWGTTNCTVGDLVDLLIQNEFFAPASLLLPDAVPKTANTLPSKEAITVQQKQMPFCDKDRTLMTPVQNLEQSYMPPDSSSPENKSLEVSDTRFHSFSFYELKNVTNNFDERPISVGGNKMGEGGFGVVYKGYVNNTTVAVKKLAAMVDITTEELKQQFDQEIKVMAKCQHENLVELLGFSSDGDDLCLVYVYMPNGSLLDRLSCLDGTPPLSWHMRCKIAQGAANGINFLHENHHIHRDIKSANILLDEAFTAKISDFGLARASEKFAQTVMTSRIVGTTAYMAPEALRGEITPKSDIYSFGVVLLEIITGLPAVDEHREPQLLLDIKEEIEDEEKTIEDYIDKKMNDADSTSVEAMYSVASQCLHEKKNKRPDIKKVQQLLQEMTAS

Compound	IC50
NCCNC(=O)c1cc(N)cc(-c2ccc3cnn(-c4cccc(C(F)(F)F)n4)c3c2)c1 [Example 88, 3-amino-N-(2-aminoethyl)-5-(1-(6-(trifluoromethyl)pyridin-2-yl)-1H-indazol-6-yl)benzamide]	< 100 nM
CC(=O)c1cccc(-c2ccc3cnn(-c4cccc(C#N)n4)c3c2)n1 [Example 236, 6-(6-(6-acet6ylpyridin-2-yl)-1H-indazol-1-yl)picolinonitrile]	> 10000 nM
CCOc1cc(-c2cccc([C@@H](N)c3ccccc3)n2)cc2c1cnn2-c1cccc(CO)n1 [Example 440, (S)-(6-(6-(6-(amino(phenyl)methyl)pyridin-2-yl)-4-ethoxy-1H-indazol-1-yl)pyridin-2-yl)methanol]	< 100 nM
NCc1cc(N)cc(-c2ccc3cnn(-c4cccc(C(F)(F)F)n4)c3c2)n1 [Example 80, 2-(aminomethyl)-6-(1-(6-(trifluoromethyl)pyridin-2-yl)-1H-indazol-6-yl)pyridin-4-amine]	< 100 nM
Cc1cccc(-n2ncc3ccc(-c4cccc(C(N)C(N)=O)n4)cc32)n1 (stereo not drawn) [Example 267, 2-amino-2-(6-(1-(6-methylpyridin-2-yl)-1H-indazol-6-yl)pyridin-2-yl)acetamide]	100 to 1000 nM
CNc1cc(-c2cccc(/C(C)=N\O)n2)cc2c1cnn2-c1cccc(C)n1 [Example 227, (Z)-1-(6-(4-(methylamino)-1-(6-methylpyridin-2-yl)-1H-indazol-6-yl)pyridin-2-yl)ethanone oxime]	1000 to 10000 nM
COCCOc1cc(-c2cccc(C3(N)CCC3)n2)cc2c1cnn2-c1cccc(CO)n1 [Example 467, (6-(6-(6-(1-aminocyclobutyl)pyridin-2-yl)-4-(2-methoxyethoxy)-1H-indazol-1-yl)pyridin-2-yl)methanol]	< 100 nM
CNC(C)c1cccc(-c2ccc3cnn(-c4cccc(C)n4)c3c2)n1 (stereo not drawn) [Example 116, N-methyl-1-(6-(1-(6-methylpyridin-2-yl)-1H-indazol-6-yl)pyridin-2-yl)ethanamine]	100 to 1000 nM
CCC[C@@H](N)c1ccnc(-c2cc(OCC)c3cnn(-c4cccc(CO)n4)c3c2)n1 [Example 584, (R)-(6-(6-(4-(1-aminobutyl)pyrimidin-2-yl)-4-ethoxy-1H-indazol-1-yl)pyridin-2-yl)methanol]	< 100 nM
CCCC(N)c1cccc(-c2ccc3cnn(-c4cccc(C(F)(F)F)n4)c3c2)n1 (stereo not drawn) [Example 268, 1-(6-(1-(6-(trifluoromethyl)pyridin-2-yl)-1H-indazol-6-yl)pyridin-2-yl)butan-1-amine]	< 100 nM
CC(N)c1cccc(-c2ccc3cnn(-c4nccc(C(F)(F)F)n4)c3c2)n1 (stereo not drawn) [Example 297, 1-(6-(1-(4-(trifluoromethyl)pyrimidin-2-yl)-1H-indazol-6-yl)pyridin-2-yl)ethanamine]	< 100 nM
CCC[C@H](N)c1cccc(-c2cc(-n3ccnn3)c3cnn(-c4cccc(CO)n4)c3c2)n1 [Example 578, (S)-(6-(6-(6-(1-aminobutyl)pyridin-2-yl)-4-(1H-1,2,3-triazol-1-yl)-1H-indazol-1-yl)pyridin-2-yl)methanol]	< 100 nM
CNC(=O)c1cccc(-n2ncc3ccc(-c4cncc(N)c4)cc32)n1 [Example 32, 6-(6-(5-aminopyridin-3-yl)-1H-indazol-1-yl)-N-methylpicolinamide]	100 to 1000 nM
CC(N)c1cccc(-c2ccc3cnn(-c4cccc(C(F)(F)F)n4)c3c2)n1 (racemic) [Example 209, 1-(6-(1-(6-(trifluoromethyl)pyridin-2-yl)-1H-indazol-6-yl)pyridin-2-yl)ethanamine]	< 100 nM
1-(6-methylpyridin-2-yl)-1H-pyrazolo[4,3-c]pyridin-7-amine [Example 200]	< 100 nM
N#CC(N)c1cccc(-c2ccc3cnn(-c4cccc(CO)n4)c3c2)n1 (stereo not drawn) [Example 560, 2-amino-2-(6-(1-(6-(hydroxymethyl)pyridin-2-yl)-1H-indazol-6-yl)pyridin-2-yl)acetonitrile]	1000 to 10000 nM
CCC[C@H](N)c1cccc(-c2cc(-c3ncc(C)o3)c3cnn(-c4cccc(CO)n4)c3c2)n1 [Example 582, (S)-(6-(6-(6-(1-aminobutyl)pyridin-2-yl)-4-(5-methyloxazol-2-yl)-1H-indazol-1-yl)pyridin-2-yl)methanol]	< 100 nM
CCC[C@H](N)c1cccc(-c2cc(OCCOC)c3cnn(-c4cncc(CO)n4)c3c2)n1 [Example 480, (S)-(6-(6-(6-(1-aminobutyl)pyridin-2-yl)-4-(2-methoxyethoxy)-1H-indazol-1-yl)pyrazin-2-yl)methanol]	< 100 nM
Cc1cccc(-n2ncc3ccc(-c4cccc(C(N)C#N)n4)cc32)n1 (stereo not drawn) [Example 258, 2-amino-2-(6-(1-(6-methylpyridin-2-yl)-1H-indazol-6-yl)pyridin-2-yl)acetonitrile]	100 to 1000 nM
CCC[C@H](N)c1cccc(-c2ccc3cnn(-c4nccc(CO)n4)c3c2)n1 [Example 403, (S)-(2-(6-(6-(1-aminobutyl)pyridin-2-yl)-1H-indazol-1-yl)pyrimidin-4-yl)methanol]	< 100 nM
CC(N)c1cccc(-c2ccc3cnn(-c4cccc(C(C)(C)C#N)n4)c3c2)n1 (stereo not drawn) [Example 288, 2-(6-(6-(6-(1-aminoethyl)pyridin-2-yl)-1H-indazol-1-yl)pyridin-2-yl)-2-methylpropanenitrile]	100 to 1000 nM
CC(=O)c1cccc(-c2cc(Cl)c3cnn(-c4cccc(C)n4)c3c2)n1 [Example 218, 1-(6-(4-chloro-1-(6-methylpyridin-2-yl)-1H-indazol-6-yl)pyridin-2-yl)ethanone]	1000 to 10000 nM
NC(=O)c1cccc(-c2ncc3ccc(-c4cncc(N)c4)cn23)n1 [Example 77, 6-(6-(5-aminopyridin-3-yl)imidazo[1,5-a]pyridin-3-yl)picolinamide]	100 to 1000 nM
CC(N)c1cccc(-c2cc(F)c3cnn(-c4cccc(CO)n4)c3c2)n1 (stereo not drawn) [Example 321, (6-(6-(6-(1-aminoethyl)pyridin-2-yl)-4-fluoro-1H-indazol-1-yl)pyridin-2-yl)methanol]	< 100 nM
CC(N)c1ccc(F)c(-c2ccc3cnn(-c4cccc(CO)n4)c3c2)n1 (stereo not drawn) [Example 564, (6-(6-(6-(1-aminoethyl)-3-fluoropyridin-2-yl)-1H-indazol-1-yl)pyridin-2-yl)methanol]	100 to 1000 nM
Cc1cccc(-n2ncc3ccc(-c4cn(C)c(C(C)O)n4)cc32)n1 (stereo not drawn) [Example 299, 1-(1-methyl-4-(1-(6-methylpyridin-2-yl)-1H-indazol-6-yl)-1H-imidazol-2-yl)ethanol]	1000 to 10000 nM
Cc1cccc(-n2ncc3c(CN)cc(-c4cccc(C(C)N)n4)cc32)n1 (stereo not drawn) [Example 104, 1-(6-(4-(aminomethyl)-1-(6-methylpyridin-2-yl)-1H-indazol-6-yl)pyridin-2-yl)ethanamine]	1000 to 10000 nM
Cc1cccc(-n2ncc3ccc(-c4ccnc(N)c4)cc32)n1 [Example 6, 4-(1-(6-methylpyridin-2-yl)-1H-indazol-6-yl)pyridin-2-amine]	100 to 1000 nM
C=C(C)c1cc(-c2cccc(C(C)N)n2)cc2c1cnn2-c1cccc(C)n1 (stereo not drawn) [Example 108, 1-(6-(1-(6-methylpyridin-2-yl)-4-(prop-1-en-2-yl)-1H-indazol-6-yl)pyridin-2-yl)ethanamine]	< 100 nM
CCCC(N)c1cccc(-c2ccc3cnn(-c4cccc(CO)n4)c3c2)n1 (stereo not drawn) [Example 280, (6-(6-(6-(1-aminobutyl)pyridin-2-yl)-1H-indazol-1-yl)pyridin-2-yl)methanol]	< 100 nM
